Reference: paper PMC7419507, “In vitro Cas9-assisted editing of modular polyketide synthase genes to produce desired natural product derivatives” (Nature Communications, 2020)
Where “and” joins values, the source holds several entries; their conditions need not be identical. Equal entries are not always repeated.

Assays:
[1] = Cytotoxicity assay (CellTiter-Glo, 72 h), Jurkat; type: cell-based; conditions: human, Jurkat cells (T lymphoma), raw data (replicates)
How it was run: (§1)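 Following 4 h attachment at 1000 cells/well, the three lines received serially halved compound doses (DMSO 0.5%) for 72 h at 37 °C under 5% CO2, with cell viability then determined by CellTiter-Glo.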

[2] = tested on: T lymphoma Jurkat cells; assay: Cytotoxicity assay (CellTiter-Glo, 72 h), Jurkat; type: cell-based; conditions: raw data (replicates)
How it was run: as §1

[3] = Cytotoxicity assay (CellTiter-Glo, 72 h), SKOV-3; type: cell-based, human; conditions: human, raw replicate data, read-out: SKOV3 viability (%)
How it was run: as §1

CO[C@@H]1/C=C/C=C/[C@@H](C)C[C@@H](C)C(=O)C[C@H](O)/C(C)=C/[C@@H](C)C(=O)C[C@@H]([C@H](C)C[C@@H]2CC[C@@H](O)[C@H](OC)C2)OC(=O)[C@@H]2CCCCN2C(=O)C(=O)[C@]2(O)O[C@@H](CC[C@H]2C)C1 [Compound 9]
viability at 72 h, 9.53674e-05 uM ([1]; conc 9.53674e-5 uM): 97.1% | viability at 72 h, 0.000190735 uM ([1]; conc 0.000190735 uM): 100% | viability at 72 h, 0.00038147 uM ([1]; conc 0.00038147 uM): 106% | viability at 72 h, 0.000762939 uM ([1]; conc 0.000762939 uM): 102% | viability at 72 h, 0.00152588 uM ([1]; conc 0.00152588 uM): 106% | viability at 72 h, 0.00305176 uM ([1]; conc 0.00305176 uM): 97.7% | viability at 72 h, 0.00610352 uM ([1]; conc 0.00610352 uM): 105% | viability at 72 h, 0.012207 uM ([1]; conc 0.012207 uM): 92.7% | viability at 72 h, 0.0244141 uM ([1]; conc 0.0244141 uM): 93.7% | viability at 72 h, 0.0488281 uM ([1]; conc 0.0488281 uM): 86% | viability at 72 h, 0.0976562 uM ([1]; conc 0.0976562 uM): 74.9% | viability at 72 h, 0.195312 uM ([1]; conc 0.195312 uM): 60.9% | viability at 72 h, 0.390625 uM ([1]; conc 0.390625 uM): 51.4% | viability at 72 h, 0.78125 uM ([1]; conc 0.78125 uM): 42.4% | viability at 72 h, 1.5625 uM ([1]; conc 1.5625 uM): 36.2% | viability at 72 h, 3.125 uM ([1]; conc 3.125 uM): 29.7% | viability at 72 h, 6.25 uM ([1]; conc 6.25 uM): 31.2% | viability at 72 h, 12.5 uM ([1]; conc 12.5 uM): 29% | viability at 72 h, 25 uM ([1]; conc 25 uM): 27.4% | viability at 72 h, 50 uM ([1]; conc 50 uM): 18.3% | Jurkat viability (%) ([2]; conc 9.53674e-5 uM): 97.9% and 103.8% | Jurkat viability (%) ([2]; conc 0.000190735 uM): 101.0% and 98.6% | Jurkat viability (%) ([2]; conc 0.00038147 uM): 107.1% and 103.4% | Jurkat viability (%) ([2]; conc 0.000762939 uM): 103.5% and 104.2% | Jurkat viability (%) ([2]; conc 0.00152588 uM): 104.2% and 102.7% | Jurkat viability (%) ([2]; conc 0.00305176 uM): 97.4% and 96.9% | Jurkat viability (%) ([2]; conc 0.00610352 uM): 101.3% and 103.8% | Jurkat viability (%) ([2]; conc 0.012207 uM): 97.2% and 97.8% | Jurkat viability (%) ([2]; conc 0.0244141 uM): 92.4% and 98.8% | Jurkat viability (%) ([2]; conc 0.0488281 uM): 88.4% and 81.5% | Jurkat viability (%) ([2]; conc 0.0976562 uM): 82.2% and 81.2% | Jurkat viability (%) ([2]; conc 0.195312 uM): 57.1% and 58.0% | Jurkat viability (%) ([2]; conc 0.390625 uM): 50.5% and 48.6% | Jurkat viability (%) ([2]; conc 0.78125 uM): 40.3% and 41.8% | Jurkat viability (%) ([2]; conc 1.5625 uM): 36.4% and 39.4% | Jurkat viability (%) ([2]; conc 3.125 uM): 29.6% and 29.1% | Jurkat viability (%) ([2]; conc 6.25 uM): 28.9% and 29.5% | Jurkat viability (%) ([2]; conc 12.5 uM): 26.0% and 28.1% | Jurkat viability (%) ([2]; conc 25 uM): 26.9% and 28.7% | Jurkat viability (%) ([2]; conc 50 uM): 17.4% and 19.3% | viability at 72 h, 9.53674e-05 uM ([3]; SKOV-3 cells (ovarian adenocarcinoma), conc 9.53674e-5 uM): 103% | viability at 72 h, 0.000190735 uM ([3]; SKOV-3 cells (ovarian adenocarcinoma), conc 0.000190735 uM): 105% | viability at 72 h, 0.00038147 uM ([3]; SKOV-3 cells (ovarian adenocarcinoma), conc 0.00038147 uM): 97.1% | viability at 72 h, 0.000762939 uM ([3]; SKOV-3 cells (ovarian adenocarcinoma), conc 0.000762939 uM): 101% | viability at 72 h, 0.00152588 uM ([3]; SKOV-3 cells (ovarian adenocarcinoma), conc 0.00152588 uM): 102% | viability at 72 h, 0.00305176 uM ([3]; SKOV-3 cells (ovarian adenocarcinoma), conc 0.00305176 uM): 97.4% | viability at 72 h, 0.00610352 uM ([3]; SKOV-3 cells (ovarian adenocarcinoma), conc 0.00610352 uM): 105% | viability at 72 h, 0.012207 uM ([3]; SKOV-3 cells (ovarian adenocarcinoma), conc 0.012207 uM): 99.1% | viability at 72 h, 0.0244141 uM ([3]; SKOV-3 cells (ovarian adenocarcinoma), conc 0.0244141 uM): 97.2% | viability at 72 h, 0.0488281 uM ([3]; SKOV-3 cells (ovarian adenocarcinoma), conc 0.0488281 uM): 90.5% | viability at 72 h, 0.0976562 uM ([3]; SKOV-3 cells (ovarian adenocarcinoma), conc 0.0976562 uM): 92.1% | viability at 72 h, 0.195312 uM ([3]; SKOV-3 cells (ovarian adenocarcinoma), conc 0.195312 uM): 75% | viability at 72 h, 0.390625 uM ([3]; SKOV-3 cells (ovarian adenocarcinoma), conc 0.390625 uM): 80.5% | viability at 72 h, 12.5 uM ([3]; SKOV-3 cells (ovarian adenocarcinoma), conc 12.5 uM): 60.9% | viability at 72 h, 25 uM ([3]; SKOV-3 cells (ovarian adenocarcinoma), conc 25 uM): 70.4% | viability at 72 h, 50 uM ([3]; SKOV-3 cells (ovarian adenocarcinoma), conc 50 uM): 52.8% | viability at 72 h, 0.78125 uM ([3]; SKOV-3 ovarian adenocarcinoma cells, conc 0.78125 uM): 70.1% | viability at 72 h, 1.5625 uM ([3]; SKOV-3 ovarian adenocarcinoma cells, conc 1.5625 uM): 73.8% | viability at 72 h, 3.125 uM ([3]; SKOV-3 ovarian adenocarcinoma cells, conc 3.125 uM): 65.5% | viability at 72 h, 6.25 uM ([3]; SKOV-3 ovarian adenocarcinoma cells, conc 6.25 uM): 70.2%
